Each structure is given as a SMILES string.

For one assay, the target named is 5-HT2A receptor (Homo sapiens, UniProt P28223). The assay can be described thus: 5-HT2A receptor binding affinity. The conditions noted are these: for Ki: 5-HT2A receptor binding affinity; for 5-HT2A receptor binding affinity compared with sarpogrelate and ketanserin: comparison of Ki values, Table 8. An excerpt: The 5-HT2A Receptor Binding Affinity of Compounds 116, 157 and 167.
The 5-HT2A receptor binding affinity data are represented by Ki values.

The subject of another assay is LPS induced endotoxaemia. The assay can be described thus: Post-treatment of multiple doses on LPS induced endotoxaemia in mice model (survival). Format: in vivo. Conditions: for survival curve versus vehicle control group: Log rank test, p<0.01. As to the method: 12 hours after intraperitoneal injection of lipopolysaccharide (LPS) 100 mg/kg, compound 116 100 μg/kg or 300 μg/kg were administrated intraperitoneally or subcutaneously every 6 hour till 48 hours after LPS insults. […] Survival curves were compared by the Log rank test, and 3 days survival rate was compared by the chi square test.

The test system of assay [1] is 5-HT induced amplification of platelet aggregation. The assay can be described thus: Collagen-elicited aggregation of rat platelet rich plasma, amplified by serotonin (Lumi-aggregometer). It is filed as cell-based, Spraque-Dawley rats. The conditions noted are these: rat PRP; for amplifying effects of serotonin on collagen induced platelet aggregation: collagen 3 μg/mL. As to the method:
Blood samples were collected from male adult Spraque-Dawley rats, and platelet rich plasma (PRP) and platelet poor plasma (PPP) were obtained by centrifugation. Aggregation was elicited by adding collagen 3 μg/mL in PRP, and the aggregation response was recorded as the change of light transmission of PRP with Lumi-aggregometer. In FIG. 9a, collagen induced platelet aggregation, and the aggregation response was amplified by adding 10 μM serotonin in 30 seconds before adding collagen, as shown in FIG. 9b.

Assay [2] deals with rat de-endothelial thoracic descending aorta. The assay can be described thus: Serotonin induced rat thoracic aorta contraction (organ bath). Also noted: species or system Sprague Dawley rats. The conditions noted are these: 0.03 or 0.1 μM in organ bath; cumulative serotonin 30 nM-0.1 mM; FIG. 10. As to the method: Thoracic aortae were obtained from adult male Sprague Dawley rats. The aortae were cleared of adhering periadventitial fat and cut into strips 3-4 mm in length. […] The tissue was incubated with warmed (37° C.), oxygenated (95% O2/5% CO2) Krebs-Henseleit solution (KBS, pH7.4) consisting of NaCl 118.2 mM, KCl 4.7 mM, KH2PO4 1.2 mM, MgSO4 1.2 mM, CaCl2·2H2O 1.9 mM, NaHCO3 25 mM and glucose 11.7 mM. Indomethacin (10 μM) was added to prevent the production of prostanoids. One end of the segment was fixed to the organ bath chamber, and the other to a force transducer (Type BG 25; Gould, Oxnard, Calif., USA) in which tension is recorded (model RS 3400 recorder, Gould). The preparations were allowed to equilibrate for at least 60 min under a passive tension of 1.5±0.2 g. Cumulative responses to serotonin (30 nM-0.1 mM) were examined for 20 min after addition of 0.03 or 0.1 μM compound 116 to the organ bath. Contraction responses were expressed as the percentage of maximum contraction.

5-HT2A receptor, sequence (P28223 whole entry): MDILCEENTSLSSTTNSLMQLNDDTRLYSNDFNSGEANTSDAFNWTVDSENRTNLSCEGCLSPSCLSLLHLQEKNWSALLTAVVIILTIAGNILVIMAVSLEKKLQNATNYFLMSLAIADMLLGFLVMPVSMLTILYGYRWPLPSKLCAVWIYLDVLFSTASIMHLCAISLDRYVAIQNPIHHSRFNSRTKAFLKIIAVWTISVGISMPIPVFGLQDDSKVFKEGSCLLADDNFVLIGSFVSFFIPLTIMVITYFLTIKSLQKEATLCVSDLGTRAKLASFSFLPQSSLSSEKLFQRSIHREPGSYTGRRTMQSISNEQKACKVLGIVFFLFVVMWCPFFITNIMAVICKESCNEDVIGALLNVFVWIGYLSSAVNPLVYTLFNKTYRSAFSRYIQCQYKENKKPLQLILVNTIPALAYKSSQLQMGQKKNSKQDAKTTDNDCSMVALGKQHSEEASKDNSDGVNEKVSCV

Consider `COc1ccc(-c2c(O)c(OC)cc3c2CN(CCc2ccccc2F)CC3)c(OC)c1` [Compound 116], for which, at 5-HT2A receptor, the Ki is 3.47 nM; the “5-HT2A receptor binding affinity compared with sarpogrelate and ketanserin” value is reported as “higher than those of the well-known 5-HT2A receptor antagonists”. The “survival curve versus vehicle control group” value in the assay with LPS induced endotoxaemia (100 μg/kg i.p. or s.c. every 6 hour from 12 h till 48 hours after LPS 100 mg/kg i.p.) is on record as “shifted the survive curve rightward significantly”. Also, the “survival curve versus vehicle control group” value in the assay on LPS induced endotoxaemia (300 μg/kg i.p. or s.c. every 6 hour from 12 h till 48 hours after LPS 100 mg/kg i.p.) is given as “shifted the survive curve rightward significantly”. Further, in assay [1] (3 μg/mL added 30 seconds before 10 μM serotonin), the “amplifying effects of serotonin on collagen induced platelet aggregation” value is reported as “blocked”. In addition, the platelet activation result in assay [1] (FIGS. 9a-9d) is listed as “Did not Exert Platelet Activation”. Besides, the “serotonin induced smooth muscle contraction” value in assay [2] is on record as “inhibits serotonin induced smooth muscle contraction in a dose dependent manner”.

Take `COc1cc2c(c(-c3ccccc3F)c1OC)CN(CCc1ccccc1)CC2` [Compound 157]: on 5-HT2A receptor, the inhibition constant (Ki) is 2.21 nM; the “5-HT2A receptor binding affinity compared with sarpogrelate and ketanserin” value is given as “higher than those of the well-known 5-HT2A receptor antagonists”.

As for `COc1cc2c(c(-c3ccccc3F)c1OC)CN(CCc1ccccc1Cl)CC2` [Compound 167], on 5-HT2A receptor, the Ki is 0.119 nM; the “5-HT2A receptor binding affinity compared with sarpogrelate and ketanserin” value is “higher than those of the well-known 5-HT2A receptor antagonists”. The “effect of post-treatment of multiple doses on LPS induced endotoxaemia” value in the assay on LPS induced endotoxaemia (same method as for compound 116, FIG. 8) is reported as “Protective Effects”.

Turning to `O=C(c1ccc(F)cc1)C1CCN(CCn2c(=O)[nH]c3ccccc3c2=O)CC1` [ketanserin, reference compound], in assay [1] (10 μM added 30 seconds before 10 μM serotonin), the “amplifying effects of serotonin on collagen induced platelet aggregation” value was “blocked”.

At 5-HT2A receptor, `COc1cccc(CCc2ccccc2OCC(CN(C)C)OC(=O)CCC(=O)O)c1` (centres unmarked) [sarpogrelate, reference compound] returned a Ki of 8.39 nM. That is a single-digit nanomolar value.
